Values of other authors, collected in US20260204362A1, “METHOD FOR DETERMINING A TARGET […] COMPOUND COMPRISING A TARGET BIODEGRADABILITY” (BASF SE, priority 2022, published 2026).

Conditions: known values for test molecules from the NITE database; OECD 301 (A-F) test setups, measurement uncertainty ca. 10%
For `CCC(CC)C(=O)OCCOCCOCCOC(=O)C(CC)CC` [CCC(CC)C(═O)OCCOCCOCCOC(═O)C(CC)CC], the “Biodegradability (data) in %” value is given as 81%.
In the case of `OCC=CCO` [OCC═CCO], the “Biodegradability (data) in %” value is given as 57%.
In the case of `CNCCS(=O)(=O)O` [CNCCS(═O)(═O)O], the “Biodegradability (data) in %” value is given as 62%.
In the case of `CCCCN(CCCC)C(=S)[S][Ni][S]C(=S)N(CCCC)CCCC` [CCCCN(CCCC)C(═S)S[Ni]SC(═S)N(CCCC)CCCC], the “Biodegradability (data) in %” value is given as 3%.
In the case of `BrCCCCBr` [BrCCCCBr], the “Biodegradability (data) in %” value is listed as 17%.
